Laboratory results reported in ChEMBL document CHEMBL1144577, “1,5-Biaryl pyrrole derivatives as EP1 receptor antagonists. Structure-activity relationships of 6-substituted and 5,6-disubstituted benzoic acid derivatives” (Bioorg Med Chem Lett, 2007).

Experiments:
[1] = biological target: T1, Thromboxane A2 receptor (Homo sapiens, UniProt P21731); assay: Inhibition of human recombinant TP receptor expressed in CHO cells by calcium mobilisation assay; type: functional, cell-based
T1 sequence (P21731 whole entry): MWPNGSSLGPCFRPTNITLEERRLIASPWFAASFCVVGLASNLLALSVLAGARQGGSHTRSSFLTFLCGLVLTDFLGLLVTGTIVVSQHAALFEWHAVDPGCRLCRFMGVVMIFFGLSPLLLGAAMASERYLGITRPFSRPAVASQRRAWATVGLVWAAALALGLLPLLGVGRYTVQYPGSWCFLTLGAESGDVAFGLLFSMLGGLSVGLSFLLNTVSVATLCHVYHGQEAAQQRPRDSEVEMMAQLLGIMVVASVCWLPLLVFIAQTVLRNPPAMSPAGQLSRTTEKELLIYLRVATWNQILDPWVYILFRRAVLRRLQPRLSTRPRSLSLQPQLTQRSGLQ

[2] = tested on: Rattus norvegicus; assay: Reversal of hypersensitivity in FCA rat model of inflammatory pain at 5 mg/kg, po; type: functional
[3] = biological target: T2, Prostaglandin E2 receptor EP1 subtype (Homo sapiens, UniProt P34995); assay: Inhibition of human recombinant EP1 receptor expressed in CHO cells by calcium mobilisation assay; type: functional, cell-based
T2 sequence (P34995 whole entry): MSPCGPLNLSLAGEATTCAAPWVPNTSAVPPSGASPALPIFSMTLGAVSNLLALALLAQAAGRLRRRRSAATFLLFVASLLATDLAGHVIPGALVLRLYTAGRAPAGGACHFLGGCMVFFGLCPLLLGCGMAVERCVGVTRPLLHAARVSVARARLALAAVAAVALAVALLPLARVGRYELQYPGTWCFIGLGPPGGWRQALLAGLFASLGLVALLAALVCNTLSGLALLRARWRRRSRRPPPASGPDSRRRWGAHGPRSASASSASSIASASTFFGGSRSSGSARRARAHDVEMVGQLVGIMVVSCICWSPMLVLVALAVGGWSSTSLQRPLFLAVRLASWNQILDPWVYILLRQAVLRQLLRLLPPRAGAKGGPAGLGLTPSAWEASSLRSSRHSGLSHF

[4] = Blood clearance in rat at 1 mg/kg, iv or 3 mg/kg, po; type: ADME, organism-based
[5] = biological target: Prostaglandin F2-alpha receptor (Homo sapiens, UniProt P43088); assay: Inhibition of human recombinant FP receptor expressed in CHO cells by calcium mobilisation assay; type: functional, cell-based
[6] = Drug level in brain of rat FCA model of inflammatory pain at 30 mg/kg, po after 6 hrs; type: ADME, organism-based; design: dose 30 mg/kg, route oral; settings: read-out: Drug uptake
[7] = biological target: T3, Prostaglandin E2 receptor EP4 subtype (Homo sapiens, UniProt P35408); assay: Binding affinity to human EP4 receptor expressed in CHO cells; type: cell-based
[8] = Drug level in blood of rat FCA model of inflammatory pain at 30 mg/kg, po after 4 hrs; type: ADME, organism-based; design: dose 30 mg/kg, route oral; settings: read-out: Drug uptake
[9] = Drug level in brain of rat FCA model of inflammatory pain at 30 mg/kg, po after 8 hrs; type: ADME, organism-based; design: dose 30 mg/kg, route oral; settings: read-out: Drug uptake
[10] = Bioavailability in rat at 3 mg/kg, po; type: ADME, organism-based; settings: in vivo
[11] = biological target: T3, Prostaglandin E2 receptor EP4 subtype; assay: Inhibition of human EP4 recombinant receptor expressed in CHO cells by cAMP mobilisation assay; type: functional, cell-based
[12] = Ratio of drug level in brain to blood in rat FCA model of inflammatory pain at 30 mg/kg, po after 24 hrs; type: ADME, organism-based; design: dose 30 mg/kg, route oral; settings: brain and blood
[13] = Drug level in brain of rat FCA model of inflammatory pain at 30 mg/kg, po after 4 hrs; type: ADME, organism-based; design: dose 30 mg/kg, route oral; settings: read-out: Drug uptake
[14] = tested on: Rattus norvegicus; assay: Normalized AUC (0 to t) in rat at 3 mg/kg, po; type: ADME, organism-based; design: dose 3 mg/kg, route oral; settings: in vivo
[15] = Drug level in blood of rat FCA model of inflammatory pain at 30 mg/kg, po after 1 hr; type: ADME, organism-based; design: dose 30 mg/kg, route oral; settings: read-out: Drug uptake
[16] = Ratio of drug level in brain to blood in rat FCA model of inflammatory pain at 30 mg/kg, po after 0.25 hrs; type: ADME, organism-based; design: dose 30 mg/kg, route oral; settings: brain and blood
[17] = Drug level in brain of rat FCA model of inflammatory pain at 30 mg/kg, po after 0.25 hrs; type: ADME, organism-based; design: dose 30 mg/kg, route oral; settings: read-out: Drug uptake
[18] = Half life in rat at 1 mg/kg, iv or 3 mg/kg, po; type: ADME, organism-based; settings: in vivo
[19] = biological target: Prostacyclin receptor (Homo sapiens, UniProt P43119); assay: Inhibition of human recombinant IP receptor expressed in CHO cells […] by calcium mobilisation assay; type: functional, cell-based
[20] = tested on: Rattus norvegicus; assay: Reversal of hypersensitivity in po dosed FCA rat model of inflammatory pain; type: functional
[21] = Drug level in blood of rat FCA model of inflammatory pain at 30 mg/kg, po after 8 hrs; type: ADME, organism-based; design: dose 30 mg/kg, route oral; settings: read-out: Drug uptake
[22] = Drug level in brain of rat FCA model of inflammatory pain at 30 mg/kg, po after 2 hrs; type: ADME, organism-based; design: dose 30 mg/kg, route oral; settings: read-out: Drug uptake
[23] = Ratio of drug level in brain to blood in rat FCA model of inflammatory pain at 30 mg/kg, po after 4 hrs; type: ADME, organism-based; design: dose 30 mg/kg, route oral; settings: brain and blood
[24] = biological target: T2, Prostaglandin E2 receptor EP1 subtype; assay: Displacement of [3H]PGE2 from human recombinant EP1 receptor expressed in CHOK1 cell membrane; type: cell membranes, CHO-K1
[25] = biological target: T4, Prostaglandin E2 receptor EP3 subtype (Homo sapiens, UniProt P43115); assay: Inhibition of human recombinant EP3 receptor expressed in CHO cells by calcium mobilisation assay; type: functional, cell-based
T4 sequence (P43115 whole entry): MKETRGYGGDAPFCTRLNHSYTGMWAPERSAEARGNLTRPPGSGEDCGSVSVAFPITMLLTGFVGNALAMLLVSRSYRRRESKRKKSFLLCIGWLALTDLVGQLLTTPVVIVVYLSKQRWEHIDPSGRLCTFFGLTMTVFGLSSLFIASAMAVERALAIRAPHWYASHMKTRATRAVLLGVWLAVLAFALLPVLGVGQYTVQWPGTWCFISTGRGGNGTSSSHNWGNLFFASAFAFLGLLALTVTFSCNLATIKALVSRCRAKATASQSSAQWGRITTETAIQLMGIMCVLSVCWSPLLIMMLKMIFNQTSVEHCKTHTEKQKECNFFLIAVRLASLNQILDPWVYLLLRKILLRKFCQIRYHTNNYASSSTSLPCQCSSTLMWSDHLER

[26] = tested on: Liver microsomes; assay: Intrinsic clearance in human liver microsomes; type: ADME, Microsome
[27] = Ratio of drug level in brain to blood in rat FCA model of inflammatory pain at 30 mg/kg, po after 1 hr; type: ADME, organism-based; design: dose 30 mg/kg, route oral; settings: brain and blood
[28] = Intrinsic clearance in monkey liver microsomes; type: ADME, Macaca mulatta, Microsome; settings: rhesus monkey
[29] = Volume of distribution in rat at 1 mg/kg, iv or 3 mg/kg, po; type: ADME, organism-based; settings: in vivo, read-out: Vss
[30] = Drug level in blood of rat FCA model of inflammatory pain at 30 mg/kg, po after 2 hrs; type: ADME, organism-based; design: dose 30 mg/kg, route oral; settings: read-out: Drug uptake
[31] = Drug level in brain of rat FCA model of inflammatory pain at 30 mg/kg, po after 1 hr; type: ADME, organism-based; design: dose 30 mg/kg, route oral; settings: read-out: Drug uptake
[32] = Ratio of drug level in brain to blood in rat FCA model of inflammatory pain at 30 mg/kg, po after 8 hrs; type: ADME, organism-based; design: dose 30 mg/kg, route oral; settings: brain and blood
[33] = Ratio of drug level in brain to blood in rat FCA model of inflammatory pain at 30 mg/kg, po after 6 hrs; type: ADME, organism-based; design: dose 30 mg/kg, route oral; settings: brain and blood
[34] = Drug level in blood of rat FCA model of inflammatory pain at 30 mg/kg, po after 0.25 hrs; type: ADME, organism-based; design: dose 30 mg/kg, route oral; settings: read-out: Drug uptake
[35] = Cmax in rat at 3 mg/kg, po; type: ADME, organism-based; design: dose 3 mg/kg, route oral; settings: in vivo
[36] = Intrinsic clearance in dog liver microsomes; type: ADME, Canis lupus familiaris, Microsome
[37] = Drug level in blood of rat FCA model of inflammatory pain at 30 mg/kg, po after 6 hrs; type: ADME, organism-based; design: dose 30 mg/kg, route oral; settings: read-out: Drug uptake
[38] = biological target: Prostaglandin E2 receptor EP2 subtype (Homo sapiens, UniProt P43116); assay: Inhibition of human recombinant EP2 receptor expressed in CHO cells […] by calcium mobilisation assay; type: functional, cell-based
[39] = Tmax in rat at 3 mg/kg, po; type: ADME, organism-based; design: dose 3 mg/kg, route oral; settings: in vivo
[40] = Drug level in brain of rat FCA model of inflammatory pain at 30 mg/kg, po after 24 hrs; type: ADME, organism-based; design: dose 30 mg/kg, route oral; settings: read-out: Drug uptake
[41] = Ratio of drug level in brain to blood in rat FCA model of inflammatory pain at 30 mg/kg, po after 2 hrs; type: ADME, organism-based; design: dose 30 mg/kg, route oral; settings: brain and blood

T3 sequence (P35408 whole entry): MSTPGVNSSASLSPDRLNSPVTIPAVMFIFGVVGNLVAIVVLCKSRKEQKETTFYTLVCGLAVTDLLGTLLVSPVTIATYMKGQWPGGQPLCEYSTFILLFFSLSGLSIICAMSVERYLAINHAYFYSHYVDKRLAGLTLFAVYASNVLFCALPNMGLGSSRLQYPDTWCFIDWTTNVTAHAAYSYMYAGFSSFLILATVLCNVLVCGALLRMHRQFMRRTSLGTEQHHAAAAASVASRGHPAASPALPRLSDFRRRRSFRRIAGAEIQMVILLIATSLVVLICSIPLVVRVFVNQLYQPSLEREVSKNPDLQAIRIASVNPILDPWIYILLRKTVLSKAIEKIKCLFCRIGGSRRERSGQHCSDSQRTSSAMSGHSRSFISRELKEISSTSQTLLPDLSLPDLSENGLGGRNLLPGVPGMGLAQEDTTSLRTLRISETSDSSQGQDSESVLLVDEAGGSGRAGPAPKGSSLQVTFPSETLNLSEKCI
Sequence of Prostaglandin F2-alpha receptor (P43088 whole entry): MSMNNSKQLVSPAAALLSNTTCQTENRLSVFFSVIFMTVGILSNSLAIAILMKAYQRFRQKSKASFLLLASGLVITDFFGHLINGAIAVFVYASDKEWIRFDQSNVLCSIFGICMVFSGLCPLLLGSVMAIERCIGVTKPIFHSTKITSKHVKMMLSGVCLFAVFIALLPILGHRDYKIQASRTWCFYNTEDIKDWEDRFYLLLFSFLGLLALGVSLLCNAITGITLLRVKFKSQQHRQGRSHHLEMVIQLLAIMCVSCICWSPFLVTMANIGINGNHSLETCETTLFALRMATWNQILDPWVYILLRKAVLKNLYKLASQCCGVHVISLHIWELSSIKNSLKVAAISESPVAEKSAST
Sequence of Prostaglandin E2 receptor EP2 subtype (P43116 whole entry): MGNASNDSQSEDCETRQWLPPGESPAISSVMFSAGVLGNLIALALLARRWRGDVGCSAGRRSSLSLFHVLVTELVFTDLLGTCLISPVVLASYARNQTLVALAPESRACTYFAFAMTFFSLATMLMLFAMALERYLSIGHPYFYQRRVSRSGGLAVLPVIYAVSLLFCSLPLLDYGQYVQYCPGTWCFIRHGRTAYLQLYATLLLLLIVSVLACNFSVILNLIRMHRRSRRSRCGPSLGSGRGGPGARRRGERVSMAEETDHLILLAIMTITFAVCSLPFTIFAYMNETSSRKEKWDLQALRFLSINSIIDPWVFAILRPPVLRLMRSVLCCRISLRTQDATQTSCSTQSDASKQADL
Sequence of Prostacyclin receptor (P43119 whole entry): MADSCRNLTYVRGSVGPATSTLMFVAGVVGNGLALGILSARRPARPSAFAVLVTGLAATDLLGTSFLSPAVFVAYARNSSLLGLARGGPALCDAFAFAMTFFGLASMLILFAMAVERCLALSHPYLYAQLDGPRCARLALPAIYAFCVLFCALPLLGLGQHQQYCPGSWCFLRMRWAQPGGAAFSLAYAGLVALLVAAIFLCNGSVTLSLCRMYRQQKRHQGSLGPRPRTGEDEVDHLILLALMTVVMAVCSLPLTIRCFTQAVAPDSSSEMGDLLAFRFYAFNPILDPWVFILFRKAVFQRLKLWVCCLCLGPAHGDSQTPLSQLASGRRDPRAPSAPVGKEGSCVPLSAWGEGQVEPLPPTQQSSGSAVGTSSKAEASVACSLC

Cc1ccc(-n2c(C)ccc2-c2cc(Cl)ccc2OCc2ccc(F)cc2)cc1C(=O)O
IC50 [1]: 39.8 nM | Ki [1]: 15.8 nM | Activity [2]: 75% | Ki [3]: 1 nM | clearance [4]: 22 mL/min/kg | IC50 [5]: > 3160 nM | concentration at 6 h [6]: 913 nM | IC50 [7]: 15800 nM | Ki [7]: 7940 nM | concentration at 4 h [8]: 3560 nM | concentration at 8 h [9]: 753 nM | bioavailability [10]: 45% | Ki [11]: 6310 nM | Kp at 24 h [12]: 0.5 | concentration at 4 h [13]: 1220 nM | AUC/dose [14]: 18 kg·min/L | concentration at 1 h [15]: 10100 nM | Kp at 0.25 h [16]: 0.4 | concentration at 0.25 h [17]: 2600 nM | half-life [18]: 4.6 h | IC50 [19]: > 3160 nM | ED50 [20]: 2.5 mg/kg | concentration at 8 h [21]: 1600 nM | concentration at 2 h [22]: 2480 nM | Kp at 4 h [23]: 0.4 | IC50 [24]: 5.01 nM | Ki [25]: 501 nM | CL [26]: <= 3.6 ml/min/g | Kp at 1 h [27]: 0.4 | CL [28]: <= 3.6 ml/min/g | Vd [29]: 2.6 L/kg | concentration at 2 h [30]: 5930 nM | concentration at 1 h [31]: 3560 nM | Kp at 8 h [32]: 0.4 | Kp at 6 h [33]: 0.4 | concentration at 0.25 h [34]: 7360 nM | Cmax [35]: 590 nM | CL [36]: <= 3.6 ml/min/g | concentration at 6 h [37]: 2310 nM | IC50 [38]: > 3160 nM | Tmax [39]: 0.5 h | concentration at 24 h [40]: 31 nM | Kp at 2 h [41]: 0.4
